{"source": "patent US20240415798A1", "about": "“COMPOSITIONS AND METHODS FOR TREATING MUCOSITIS” (Enzychem Lifesciences Corporation, priority 2021, published 2024)", "key": {"IL-1β": {"system": "IL-1β", "assay": "Luminex assay of patient plasma, IL-1β", "assay_type": "in vivo, human", "description": "(§1) The plasma sample collected from the blood of patients listed in (Table 1 below) was thawed and centrifuged at 10,000 rpm at 4° C. for 2 minutes, and the supernatant was used for analysis. The supernatant was serially diluted, and 50 μl of the samples were dispensed to each well in a 96-well plate. 5O μl of diluted Microparticle Cocktail (R&D systems) shown in Table 2 was added to each well containing samples and incubated for 2 hours at room temperature on a shaker at 800 rpm. The sample mixture was removed and washed with 100 μl of washing buffer three times. Then, 50 μL of diluted Biotin-Antibody Cocktail (R&D systems) to each well and incubate for 1 hour at RT on the shaker at 800 rpm, followed by three times of washing with wash buffer. 50 μL of diluted […] at RT on the shaker at 800 rpm. After washing with wash buffer three times, 100 μl of wash buffer was added to each well, and the sample's fluorescence intensity was obtained using a Luminex analyzer (Luminex) within 90 mins.\n(§2) Standard, control and the sample was quantitatively analyzed using the average value of the results obtained by duplicate test.\n(§3) The absolute value of each sample's mean fluorescence intensity (MFI) was obtained by comparing it to the standard curve. The value derived as an under-standard was marked as 0 because it is a trace value outside the detection range of the assay kit.\n(§4) The standard curve was obtained by the best fit method in ‘MasterPlex QT 2010 (MiraiBio, Hitachi, CA, USA)’ to calculate the response measured value (MFI) for each standard concentration, which has the highest R square value among each calculation method (Highest value =1.0). The sample's resultant concentration value was calculated based on this standard curve."}, "TGFβ": {"system": "TGFβ", "assay": "Luminex assay of patient plasma, TGFβ", "assay_type": "in vivo, human", "description": "as §1, §2, §3, §4"}, "[1]": {"assay": "Phase 2 clinical study of EC-18, safety (SAE/AE, MTD)", "assay_type": "in vivo", "description": "(§5) For the study, 25 large institutions and hospitals experienced with head and neck cancer treatment were selected • Stage 1: To Evaluate safety and MTD that can be used for Stage 2 iDSMB: Data and Safety Monitoring Board reviewed safety data every 2 weeks and approved for Stage 2 using MTD 2000 mg. • Stage 2: To Evaluate safety and efficacy 7 weeks Active and 4-6 weeks of STFU until OM is resolved. • 2.0-2.2 Gy daily fraction (5 days a week for 7 weeks) and I week (40 mg/m2) or every 3 weeks (100 mg/m2) cisplatin. • Minimum cumulative radiation dose of 55 Gy.\nStage 1 had 17 total SAEs from a total of 24 patients when Stage 2 had 31 total SAEs from a total of 81 patients. 020-018 patient was determined by investigator to be not related to study drug. Many SAEs occurred due to nausea and vomiting which is a normal symptom for chemo treatment"}, "[2]": {"system": "severe oral mucositis (SOM)", "assay": "Phase 2 clinical study of EC-18 in chemoradiation-induced oral mucositis (efficacy)", "assay_type": "in vivo, human", "excerpt": "Human patients of the following characteristics were enrolled: • 18 years or older • Diagnosis of squamous cell carcinoma of the mouth, oropharynx, hypopharynx or nasopharynx • Planned to receive IMRT with daily fractions of 2.0 Gy to 2.2 Gy to a cumulative dose of at least 60 Gy and a maximum of 72 Gy • Radiation fields to include at least two mucositis sites at risk (buccal mucosa, floor of mouth, ventral and lateral tongue, soft palate) in which both sites receive a minimum cumulative dose of 55 Gy • Planned to receive concomitant single agent chemotherapy with cisplatin\nEC-18 was administered in varying patients of the treatment group up to 2000 mg/day. Recommended therapy was 500 mg EC-18 capsule administered 4 times throughout the day (e.g., 2 capsules of 500 mg EC-18 administered within 30 mins after taking breakfast and dinner) for a total daily dosage of 2000 mg EC-18 per day. Treatment protocol lasted 7 weeks while radiation therapy and cisplatin therapy continued during the same time.\nas §5\nFor Efficacy, measured duration of severe oral mucositis (SOM), Incidence of SOM during active treatment.\nIn Stage 1, we included Stage 1 placebo and 2000 mg patients to Stage 2 for efficacy analysis: • Placebo group: Stage 1 n=2, Stage 2 n=18: Total: 20 • EC-18 2000 mg group: Stage 1 n=5, Stage 2 n=17: Total: 22"}, "[3]": {"conditions": "regardless of the incidence of SOM"}, "[4]": {"conditions": "PP population, EC-18 2,000 mg vs placebo"}}, "note": "Values joined by “and” are separate entries in the source; they are usually repeats but may differ in a detail not shown here. Equal values may be shown once.", "data": [{"smiles": "CCCCC/C=C\\C/C=C\\CCCCCCCC(=O)OC(COC(C)=O)COC(=O)CCCCCCCCCCCCCCC", "note": "(centres unmarked) [EC-18]", "values": [{"measurement": "IL-1β concentration at 4th and 7th weeks", "setting": "IL-1β; 4th and 7th weeks of treatment", "result": "under the detection limit"}, {"measurement": "IL-1β concentration vs placebo, HPV+/HPV−", "setting": "IL-1β; regardless of HPV infection state", "result": "significantly lower compared with the placebo group"}, {"measurement": "IL-1β concentration vs placebo, with or without SOM", "setting": "IL-1β; [3]", "result": "significantly lower compared with the placebo group"}, {"measurement": "IL-1β concentration vs placebo, weekly or tri-weekly cisplatin", "setting": "IL-1β; regardless of the weekly or tri-weekly cisplatin treatment", "result": "significantly lower than in the placebo group"}, {"measurement": "IL-1β concentration vs placebo, total", "setting": "IL-1β; throughout seven weeks treatment period", "result": "significantly lower than the placebo group"}, {"measurement": "TGF-β concentration vs placebo, total", "setting": "TGFβ; 7th week of chemoradiation therapy", "result": "significantly higher than the placebo group"}, {"measurement": "TGF-β concentration vs placebo, HPV-positive", "setting": "TGFβ; HPV-positive population", "result": "significantly higher compared with placebo"}, {"measurement": "TGF-β concentration vs placebo, with or without SOM", "setting": "TGFβ; [3]", "result": "higher compared with the placebo group"}, {"measurement": "TGFβ concentration vs placebo, tri-weekly cisplatin", "setting": "TGFβ; sub-population with tri-weekly cisplatin", "result": "not significantly different"}, {"measurement": "TGF-β concentration vs placebo, cisplatin once a week", "setting": "TGFβ; sub-population with weekly cisplatin", "result": "significantly higher compared with placebo"}, {"measurement": "MTD", "setting": "[1]; Stage 1, daily dose, approved for Stage 2", "result": 2000, "unit": "mg"}, {"measurement": "serious adverse events (SAE) across study arms", "setting": "[1]; human, in vivo", "result": "no appreciable differences in SAEs were observed across the study arms"}, {"measurement": "attribution of reported AEs", "setting": "[1]; human, in vivo, 7 weeks", "result": "all the reported AEs were attributable to chemoradiation treatment and not to EC-18"}, {"measurement": "reduction of incidence of SOM compared to placebo population", "setting": "[2]; EC-18 group vs placebo", "result": "over 35%"}, {"measurement": "therapeutic benefit over the control group", "setting": "[2]; EC-18 up to 2000 mg/day, 7 weeks, with radiation and cisplatin", "result": "clear therapeutics benefit over the control group"}, {"measurement": "delay of SOM onset compared with placebo", "setting": "[2]; [4]", "result": 8, "unit": "days"}, {"measurement": "delay of first opioid use vs placebo, mean", "setting": "[2]; [4]", "result": 6.3, "unit": "days"}, {"measurement": "delay of first opioid use vs placebo, median", "setting": "[2]; [4]", "result": 11.5, "unit": "days"}, {"measurement": "time to SOM onset", "setting": "[2]; PP population, EC-18 2,000 mg, placebo 43 days", "result": 51, "unit": "days"}, {"measurement": "incidence of SOM through active treatment period", "setting": "[2]; PP population, baseline through 7-week active treatment period, EC-18 2,000 mg, placebo 65.0%", "result": 36.4, "unit": "%"}, {"measurement": "incidence of SOM (number of subjects)", "setting": "[2]; PP population, baseline through active treatment period and STFU, EC-18 2000 mg (n=22), placebo 14", "result": 10}, {"measurement": "incidence of SOM", "setting": "[2]; PP population, baseline through active treatment period and STFU, EC-18 2000 mg, placebo 70.0%", "result": "45.5% and 45%"}, {"measurement": "time to first use of opioid analgesics, median", "setting": "[2]; PP population, evaluable subjects n=8, EC-18 2000 mg, placebo 25.5 days", "result": 37, "unit": "days"}, {"measurement": "time to first use of opioid analgesics, mean", "setting": "[2]; PP population, evaluable subjects n=8, EC-18 2000 mg, placebo 26 days", "result": 32.3, "unit": "days"}, {"measurement": "SOM incidence at each week interval", "setting": "[2]; PP population, weekly intervals, vs placebo", "result": "less than placebo group"}, {"measurement": "incidence of SOM, HPV+", "setting": "[2]; subjects with HPV+, EC-18 2000 mg, placebo 66.7%", "result": 35.3, "unit": "%"}, {"measurement": "incidence of SOM, HPV−", "setting": "[2]; subjects with HPV−, EC-18 2000 mg, placebo 71.4%", "result": 75, "unit": "%"}, {"measurement": "incidence of SOM, tri-weekly cisplatin", "setting": "[2]; subjects with tri-weekly cisplatin, EC-18 2000 mg, placebo 70.0%", "result": 66.7, "unit": "%"}, {"measurement": "incidence of SOM, weekly cisplatin", "setting": "[2]; subjects with weekly cisplatin, EC-18 2000 mg, placebo 70.0%", "result": 37.5, "unit": "%"}]}]}
